Measurements as given in patent US11439609B2, “Nitric oxide releasing PLGA microspheres for biomedical applications” (THE REGENTS OF THE UNIVERSITY OF MICHIGAN, priority 2015, dated 2022).

Assay: Morphology and size distribution by SEM
Assay type: physicochemical
Settings: cryomilled at −196° C.
Description: For morphology and size distribution analysis, microspheres were coated with 40 nm of gold using a sputter coater (Desk II, Denton Vacuum Inc., Hill, N.J., USA) for 120 seconds. Secondary electron micrographs were taken by a Hitachi S-3200N Variable Pressure SEM (Hitachi High-Technologies Corp., Tokyo, Japan). The applied accelerating voltage was 15 kV. For size distribution measurements, the diameter of at least 500 particles was measured and analyzed with ImageJ software (see, e.g., C. A. Schneider, W. S. Rasband, K. W. Eliceiri, NIH Image to ImageJ: 25 years of image analysis, Nature Methods. 9 (2012) 671-675). For cross-sectional images, the microspheres were cut using a razor-blade on a glass slide prior to coating with gold for the SEM analysis.

CC(=O)N[C@@H](C(=O)O)C(C)(C)SN=O [SNAP, S-nitroso-N-acetyl-D-penicillamine]
particle dimensions after micronization: < 25 μm
